Experimental findings from paper PMC7203344, “Sirtuin 1 Inhibiting Thiocyanates (S1th)—A New Class of Isotype Selective Inhibitors of NAD^+ Dependent Lysine Deacetylases” (Frontiers in Oncology, 2020) are described below.

For orientation: inhibition means how much of the control response was suppressed.

Molecules are shown by their SMILES.

Data set [1] deals with HDAC1 (Homo sapiens, UniProt Q13547). The data set is described as follows: Homogeneous ZMAL-based fluorescence assay for HDAC1. It is filed as biochemical. Here is the method:
The inhibition of HDAC1 and 6 by the S1th and PR-619 was determined via the ZMAL-assay according to the same general procedure described for sirtuins (2.2.1). 5 μL substrate (10.5 μM final assay concentration) were mixed with 3 μL of inhibitor in DMSO or DMSO and 10 μL of HDAC solution (concentration adjusted to 15–30% conversion) and filled up to 60 μL with assay buffer (50 mM Tris, 137 mM NaCl, 1 mM MgCl2, 2,7 mM KCl, 1 mg/ml BSA, pH = 8.0). The mixture was incubated at 37°C and 140 rpm for 1.5 h. For the stop solution Trichostatin A (3.3 μM) was used instead of nicotinamide. Fluorescence intensity was measured as described above. An enzyme free blank control and an AMC containing 100% control were performed as well and inhibition was calculated in % in relation to a DMSO control.

The subject of data set [2] is γH2AX/H2AX levels in MEF cells. The data set is described as follows: γH2AX level determination by western blot. It is filed as cell-based, mouse. The conditions noted are these: 48 h, EX-527 10 μM, S1th 10 30 μM, S1th 12 20 μM, S1th 13 12 μM, SirReal2 30 μM. Here is the method: Sirt1 WT and KO MEFS cells were treated with 10 μM EX-527, 12 μM S1th 13 (6), 20 μM S1th 12 (5), 30 μM S1th 10 (7) and 30 μM SirReal2 [Sirt2 inhibitor, synthesized according to ([62])] for 48 h. Oxidative stress was induced using 10 μM Camptothecin 2 h. Whole-cell extracts were performed according to the Dignam protocol ([63]). Primary antibodies used for the western blot were anti-H2AX and anti-γH2AX (ab11175 and ab2893 resp., Abcam, UK). Densiometric analysis of the western blots was performed with Quantity One software (Bio-Rad Laboratories, Inc., USA).

Data set [3] concerns HeLa cells. The data set is described as follows: Colony forming assay with HeLa cells. Format: cell-based, human. The conditions noted are these: 7–10 days; concentrations as in proliferation assay. The method, then:
(§1) For colony assays, 50 cells per well were seeded in 6-well plates and grown in the same conditions with the same drug concentrations as for the proliferation assays. In this case, the growth media containing the drugs was replaced every 48 h. After 7–10 days, when isolated colonies were formed, wells were washed with PBS, and cells were fixed with cold methanol for 5 min at RT. Cells were stained with crystal violet for 10 min at RT and washed with H2O. Images were acquired using iBright (Thermo Fisher Scientific, MA, USA). For quantification, cells of each well were resuspended in 10% glacial acetic acid to dissolve crystal violet whose levels were monitored by measuring absorbance at 590 nm. The experiment was performed in duplicates.

The test system of data set [4] is H3K9ac and p53K382ac in HeLa cells. The data set is described as follows: Analysis of acetylation status in HeLa cells by western blotting. Format: cell-based, human. The conditions noted are these: 48 h; concentrations as in proliferation assay. Here is the method: 5 × 10^4 cells were plated in 6-well plates and grown with the conditions and drug concentrations as described for the proliferation assay. Cells were harvested at 48 h and resuspendend in protein loading buffer. After sonication the samples were centrifuged at 14,000 rpm in an Eppendorf microcentrifuge (Eppendorf, DE) and the supernatants were analyzed by western-blot. The following antibodies were used: histone H3 (Cell Signaling #9715), histone H3K9ac (Cell Signaling # C5B11), GAPDH (Cell Signaling #D16H11), p53 (ThermoFisher #PA527822), and p53K382ac (Abcam 75754). Quantification was carried out using imageJ.
In general terms: A western blot detects proteins with antibodies after separation by electrophoresis.

Data set [5] has as its system MCF7 cells. The data set can be described thus: Cell proliferation assay with MCF7 cells. It is filed as cell-based, human. The settings on record: concentrations as for HeLa. The method, then: 1.5 × 10^4 cells/well were seeded in 24-well plates and grown in DMEM 10% in presence of DMSO, 20 μM EX-527, 12 μM S1th 13, 20 μM S1th 12, or 30 μM S1th 10. The growth media containing the drugs was replaced every 48 h. Cells were collected and counted at the indicated times starting 24 h after seeding (0, 24, 48, 72, 96, and 120 h). The experiment was performed twice in duplicates.

Data set [6] has as its system MCF7 cells. The data set can be described thus: Colony forming assay with MCF7 cells. It is filed as cell-based, human. The conditions noted are these: concentrations as for HeLa. Here is the method: as §1
Data set [7] in a line: Solubility as found in testing. Format: physicochemical. The settings on record: compared with earlier hits such as S1th 7.

HDAC1, sequence (Q13547 whole entry, species assumed): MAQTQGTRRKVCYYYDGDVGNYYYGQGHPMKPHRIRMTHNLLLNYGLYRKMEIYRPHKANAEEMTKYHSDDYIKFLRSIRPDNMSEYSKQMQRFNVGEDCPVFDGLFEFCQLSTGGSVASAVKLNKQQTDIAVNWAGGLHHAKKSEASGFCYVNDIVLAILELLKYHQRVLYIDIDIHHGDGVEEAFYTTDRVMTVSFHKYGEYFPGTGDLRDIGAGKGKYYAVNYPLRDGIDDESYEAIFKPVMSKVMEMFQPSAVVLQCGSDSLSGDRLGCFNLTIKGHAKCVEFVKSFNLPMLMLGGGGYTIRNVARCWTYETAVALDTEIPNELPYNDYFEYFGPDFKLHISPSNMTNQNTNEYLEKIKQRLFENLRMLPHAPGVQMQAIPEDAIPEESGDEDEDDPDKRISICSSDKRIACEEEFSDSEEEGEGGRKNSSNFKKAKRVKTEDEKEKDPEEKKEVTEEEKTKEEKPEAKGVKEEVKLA

Take `N#CSc1cc(SC#N)c(N)nc1N` [PR-619, reference compound]: in data set [1], 100 µM produced 54% inhibition and the “residual activity HDAC1” value is recorded as ~ 50%.

For the compound `N#CSc1cccc(NC(=O)[C@H]2CC=CC[C@H]2C(=O)O)c1` [S1th 10], in data set [1], the inhibition at 100 µM was less than 10%. For the same compound, the “γH2AX/H2AX levels without Camptothecin” value in data set [2] is “decreased”. In data set [3], the “colony forming of HeLa cells” value was “only mild effects”. In data set [4], the “H3K9 acetylation in HeLa cells” value was “clear effect on acetylation” and the “p53K382 acetylation in HeLa cells” value is reported as “clear effect on acetylation”. Further, the “cell proliferation of MCF7 cells” value in data set [5] is recorded as “most effective”. Besides, in data set [6], the “colony forming capabilities of MCF7 cells” value (shortened to “colony forming capabilities”) is listed as “slightly decreased”.

In data set [1], `CCCCNC(=O)Nc1cccc(SC#N)c1` [S1th 11] showed an inhibition at 100 µM of less than 10%. Moreover, the “solubility (in words)” value in data set [7] is on record as “better soluble”.

In the case of `COc1ccc(SC#N)cc1OCC(=O)N(CCC#N)CCC#N` [S1th 12], the inhibition at 100 µM in data set [1] is less than 10%. For the same compound, the “γH2AX/H2AX levels without Camptothecin” value in data set [2] was “decreased”. Also, the “colony forming of HeLa cells” value in data set [3] is “only mild effects”. Besides, in data set [4], the “H3K9 acetylation in HeLa cells” value is “clear effect on acetylation” and the “p53K382 acetylation in HeLa cells” value is reported as “clear effect on acetylation”. Moreover, the “cell proliferation of MCF7 cells” value in data set [5] is “only have a mild effect”. In data set [6], the “colony forming capabilities” value is “barely affected”. Moreover, the “solubility (in words)” value in data set [7] is recorded as “better soluble”.

As to `N#CSc1cccc(NS(=O)(=O)c2ccc3c(c2)OCCO3)c1` [S1th 13], in data set [1], the inhibition at 100 µM was less than 10%. Besides, the “γH2AX/H2AX levels without Camptothecin” value in data set [2] was “decreased”. Also, the “colony forming of HeLa cells” value in data set [3] is “almost as potent as EX-527”. In data set [4], the “H3K9 acetylation in HeLa cells” value is “clear effect on acetylation” and the “p53K382 acetylation in HeLa cells” value is “clear effect on acetylation”. The “cell proliferation of MCF7 cells” value in data set [5] is listed as “most effective”. Also, the “colony forming capabilities” value in data set [6] is “significantly decreased”. For the same compound, the “solubility (in words)” value in data set [7] was “better soluble”.
